Tests used:
[1] = tested on: RARα; test: Fluorescence competition binding assay (displacement of DC271); design: species or system human; details: log-log plot of K D for RARα and RARγ
Description: (§1) Fluorescence competition assays were employed to determine the relative binding affinities of each synthetic retinoid toward the LBD of the RARs. The assay is based on the potential for competitive displacement of the inherently fluorescent retinoid DC271 from the LBP by a test nonfluorescent synthetic retinoid. Changes in the fluorescence were measured following the addition of a serial dilution of the test compound and the results were plotted to generate a binding curve. […] Assays were performed for both RARα and RARγ. […] Nonlinear least-squares regression analyses were performed to calculate binding affinities and reported as binding K D, the equilibrium dissociation constant between the RAR isoform and the test synthetic retinoid.
(§2) RARα/γ proteins were expressed in BL21(DE3) cells (NEB) transformed into pET50b (Novagen) and pOPINS3C vectors, respectively, carrying the gene construct and containing a His6-3C-NusA tag or His6-3C-SUMO tag used for solubility. Transformations were carried out under standard conditions using Quick Transformation Protocol (New England Biolabs). Successful transformants were grown overnight in 2xYT media (Melford) and frozen for storage at −80 °C in 50% glycerol. Expression cultures were inoculated from glycerol stocks into 25 mL of 2xYT media (Melford) with 50 μg/mL kanamycin or 100 μg/mL ampicillin (Sigma-Aldrich) and grown overnight with shaking (37 °C, 150 rpm). The overnight cultures were transferred into 1 L expression flasks (2xYT/ampicillin 100 μg/mL or 2xYT/kanamycin 50 μg/mL) and grown with shaking at 37 °C, 150 rpm. Induction was carried out at an OD600 of 0.6–0.8, with 1 mL of 1 M IPTG (1 mM in culture), before shaking overnight (20 h) at 18 °C. The resulting cultures were spun down into pellets using an Avanti Hi-Speed centrifuge (JLA 8.1000, 4000 rpm, 30 min, 4 °C), before the supernatant was removed and the bacterial pellet were frozen at −80 °C.
(§3) RARα/γ (pET50b or pOPINS3C, BL21(DE3) (NEB)) were resuspended from pellet with 20 mL Wash Buffer (20 mM Tris-HCl, 300 mM NaCl and 20 mM imidazole, pH 8) and the resulting suspension was sonicated on ice (40% power, 2 min, repeated twice with 1 min rest in-between) before centrifuging (Avanti Hi-Speed JA25.50, 20,000 rpm, 1 h, 4 °C). Supernatants were clarified using 0.45 μm syringe filters (Thermo Fisher Scientific). Affinity chromatography and size-exclusion (SEC) chromatography were carried out on AKTA Pure25 (Cytiva). Supernatants were loaded onto the HisTrap HP column (5 mL, Cytiva) and washed using 25 mL of wash Buffer. The column was washed with Wash Buffer until UV trace returned to baseline, before RARα/γ was eluted using a gradient of Elution Buffer (20 mM Tris-HCl, 300 mM NaCl, 500 mM imidazole pH 8). The resulting protein-containing fractions were analyzed by SDS-PAGE (200 V, 30 min) using SurePAGE Bis-Tris 12% precast gels (Genscript). Protein concentrations were estimated using absorbance at 280 nm on a DS-11 spectrophotometer (Denovix) with calculated molecular weights and extinction coefficients (Expasy). RAR proteins were cleaved overnight from 3C-NusA tag or 3C-SUMO-His tag using 1 Unit/100 μg protein of HRV3C protease (Thermo Fisher Scientific) at 4 °C. Solution after digestion was loaded onto a HiLoad 16/600 Superdex 75 prep-grade column (Cytiva) and cleaved RARα/γ was separated from the tag based on molecular weight and eluted from the column using SEC Buffer (20 mM Tris-HCl, 300 mM NaCl and 0.5 mM TCEP, pH 8) into 2 mL fractions. The resulting protein fractions were analyzed by SDS PAGE (200 V, 30 min) using SurePAGE Bis-Tris 12% precast gels (Genscript), before being concentrated to 5 mg/mL using centrifugal concentrators (Sartorius) and frozen at −80 °C in small aliquots for use in binding assays.

[2] = target: T1, RARα (Homo sapiens, UniProt P10276); test: as above
T1 construct: His6-3C-NusA (cleaved yes); made in house; host or cells: E. coli BL21(DE3), pET50b vector
T1 sequence (P10276 183-417 limits assumed): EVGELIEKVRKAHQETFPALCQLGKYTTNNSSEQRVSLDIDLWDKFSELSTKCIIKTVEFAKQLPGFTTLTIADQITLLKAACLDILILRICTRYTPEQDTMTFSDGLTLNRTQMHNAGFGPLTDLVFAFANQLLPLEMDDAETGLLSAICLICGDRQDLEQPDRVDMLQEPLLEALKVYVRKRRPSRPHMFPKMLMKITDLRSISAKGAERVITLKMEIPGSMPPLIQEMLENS
Description: as §1, §2, §3

[3] = tested on: ERK1/2 phosphorylation in SH-SY5Y cells; test: ERK1/2 phosphorylation (nongenomic response), AlphaScreen SureFire; format: cell-based, human; design: nongenomic response Emax (±95% CI): unit not given here; details: SH-SY5Y cells, 1 h
How it was run: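 SH-SY5Y cells (100,000/well) were serum-starved for 24 h, then exposed to retinoids in serum-free DMEM for 60 min at 37 °C with 0.1% DMSO final. Phospho-ERK1/2 in lysates was read by AlphaScreen SureFire. Values come from sigmoidal log(agonist)–response fits, as mean ± SEM of three independent experiments run in triplicate.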

Chain of RARα (P10276 182-417): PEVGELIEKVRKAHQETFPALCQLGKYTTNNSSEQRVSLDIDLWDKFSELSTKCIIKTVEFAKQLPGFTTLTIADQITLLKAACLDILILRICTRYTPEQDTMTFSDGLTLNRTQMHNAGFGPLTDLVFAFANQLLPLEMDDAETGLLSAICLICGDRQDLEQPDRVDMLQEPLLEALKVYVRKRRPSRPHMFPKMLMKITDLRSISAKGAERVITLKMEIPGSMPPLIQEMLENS

- Kd ([2]; 100 nM RAR and DC271 on plate, read-out: Binding KD (± SD) RARα): 2580 nM
- ΔGEXP RARα ([2]; experimental binding free energy from K D, ΔGexp=−RT ln K, 298.1 K): -7.64 kcal/mol
- nongenomic response EC50 (±95% CI) [3]: no response
SMILES: Cc1sc(-c2ccc(C(=O)O)cc2F)nc1-c1cnc2c(n1)C(C)(C)CCC2(C)C [Compound 43, 3-Fluoro-4-[5-methyl-4-(5,5,8,8-tetramethyl-5,6,7,8-tetrahydroquinoxalin-2-yl)-1,3-thiazol-2-yl]benzoic Acid]
- binding preference RARα versus RARγ (from K D) [1]: close to the plotted line representing equal binding affinity for RARα and RARγ
- induction of ERK1/2 phosphorylation (nongenomic activity) [3]: lacked nongenomic activity
- nongenomic response Emax (±95% CI) [3]: no response
